In patent publication US9073911B2, “Pyrazole derivatives” (HOFFMANN-LA ROCHE INC., priority 2011, dated 2015) one finds Ki and Kd data, which are given here for 19 compounds.

Broadly, the Ki is the dissociation constant of the complex between target and ligand, obtained from inhibition or displacement. The low end stands for higher affinity, the high end for lower affinity. The Kd is the constant that tells how readily two partners part at equilibrium.

Each structure is given as a SMILES string. Structures can show the parent of a compound that is named as a salt.

The target in one experiment is mouse TAAR1 (Mus musculus (Mouse), UniProt Q923Y8). Briefly: Radioligand binding assay on mouse TAAR1. The settings on record: for Ki: membranes of HEK-293 cells stably expressing mouse TAAR1, first value of cell mouse/rat. Here is the method: (§1) Construction of TAAR Expression Plasmids and Stably Transfected Cell Lines
(§2) For the construction of expression plasmids the coding sequences of human, rat and mouse TAAR 1 were amplified from genomic DNA essentially as described by Lindemann et al.. The Expand High Fidelity PCR System (Roche Diagnostics) was used with 1.5 mM Mg^2+ and purified PCR products were cloned into pCR2.1-TOPO cloning vector (Invitrogen) following the instructions of the manufacturer. PCR products were subcloned into the pIRESneo2 vector (BD Clontech, Palo Alto, Calif.), and expression vectors were sequence verified before introduction in cell lines.
(§3) HEK293 cells (ATCC # CRL-1573) were cultured essentially as described by Lindemann et al. (2005). For the generation of stably transfected cell lines HEK293 cells were transfected with the pIRESneo2 expression plasmids containing the TAAR coding sequences (described above) with Lipofectamine 2000 (Invitrogen) according to the instructions of the manufacturer, and 24 hrs post transfection the culture medium was supplemented with 1 mg/ml G418 (Sigma, Buchs, Switzerland). After a culture period of about 10 d clones were isolated, expanded and tested for responsiveness to trace amines (all compounds purchased from Sigma) with the cAMP Biotrak Enzyme immunoassay (EIA) System (Amersham) following the non-acetylation EIA procedure provided by the manufacturer.
Radioligand Binding Assay on Mouse TAAR1
(§4) Membrane Preparation and Radioligand Binding.
HEK-293 cells stably expressing mouse TAAR1 were maintained at 37° C. and 5% CO2 in DMEM high glucose medium, containing fetal calf serum (10%, heat inactivated for 30 min at 56° C.), penicillin/streptomycin (1%), and 375 μg/ml geneticin (Gibco). Cells were released from culture flasks using trypsin/EDTA, harvested, washed twice with ice-cold PBS (without Ca^2+ and Mg^2+), pelleted at 1,000 rpm for 5 min at 4° C., frozen and stored at −80° C. Frozen pellets were suspended in 20 ml HEPES-NaOH (20 mM, pH 7.4) containing 10 mM EDTA and homogenized with a Polytron (PT 6000, Kinematica) at 14,000 rpm for 20 s. The homogenate was centrifuged at 48,000×g for 30 min at 4° C. Subsequently, the supernatant was removed and discarded, and the pellet resuspended in 20 ml HEPES-NaOH (20 mM, pH 7.4) containing 0.1 mM EDTA using the Polytron (20 s at 14,000 rpm). This procedure was repeated and the final pellet resuspended in HEPES-NaOH containing 0.1 mM EDTA and homogenized using the Polytron. Typically, aliquots of 2 ml membrane portions were stored at −80° C. With each new membrane batch the dissociation constant (Kd) was determined via a saturation curve. The TAAR1 radioligand ^3[H]—(S)-4-[(ethyl-phenyl-amino)-methyl]-4,5-dihydro-oxazol-2-ylamine (described in WO 2008/098857) was used at a concentration equal to the calculated Kd value, that was usually around 0.7 nM, resulting in the binding of approximately 0.5% of the radioligand and a specific binding representing approximately 70% of the total binding. Nonspecific binding was defined as the amount of ^3[H]—(S)-4-[(ethyl-phenyl-amino)-methyl]-4,5-dihydro-oxazol-2-ylamine bound in the presence of 10 μM unlabeled ligand. All compounds were tested at a broad range of concentrations ([…]) in duplicates. […] The 96 deep well plates were incubated for 1 hr at 4° C. Incubations were terminated by rapid filtration through Unifilter-96 plates (Packard Instrument Company) and glass filters GF/C (Perkin Elmer) presoaked for 1 hr in polyethylenimine (0.3%) and washed 3 times with 1 ml of cold binding buffer. After addition of 45 μl of Microscint 40 (PerkinElmer) the Unifilter-96 plate was sealed and after 1 hr the radioactivity counted using a TopCount Microplate Scintillation Counter (Packard Instrument Company).

In the next experiment the target is rat TAAR1 (Rattus norvegicus (Rat), UniProt Q923Y9). Briefly: Radioligand binding assay on rat TAAR1. The settings on record: for Ki: membranes of HEK-293 cells stably expressing rat TAAR1, second value of cell mouse/rat. Here is the method: as §1, §2, §3
Radioligand Binding Assay on rat TAAR1
as §4
HEK-293 cells stably expressing rat TAAR1 were maintained at 37° C. and 5% CO2 in DMEM high glucose medium, containing fetal calf serum (10%, heat inactivated for 30 min at 56° C.), penicillin/streptomycin (1%), and 375 μg/ml geneticin (Gibco). Cells were released from culture flasks using trypsin/EDTA, harvested, washed twice with ice-cold PBS (without Ca^2+ and Mg^2+), pelleted at 1,000 rpm for 5 min at 4° C., frozen and stored at −80° C. Frozen pellets were suspended in 20 ml HEPES-NaOH (20 mM, pH 7.4) containing 10 mM EDTA and homogenized with a Polytron (PT 6000, Kinematica) at 14,000 rpm for 20 s. The homogenate was centrifuged at 48,000×g for 30 min at 4° C. Subsequently, the supernatant was removed and discarded, and the pellet resuspended in 20 ml HEPES-NaOH (20 mM, pH 7.4) containing 0.1 mM EDTA using the Polytron (20 s at 14,000 rpm). This procedure was repeated and the final pellet resuspended in HEPES-NaOH containing 0.1 mM EDTA and homogenized using the Polytron. Typically, aliquots of 2 ml membrane portions were stored at −80° C. With each new membrane batch the dissociation constant (Kd) was determined via a saturation curve.
Nonspecific binding was defined as the amount of ^3-[H]-(S)-4-[(ethyl-phenyl-amino)-methyl]-4,5-dihydro-oxazol-2-ylamine bound in the presence of 10 μM unlabeled ligand. All compounds were tested at a broad range of concentrations (10 pM to 10 μM) in duplicates. […] The 96 deep well plates were incubated for 1 hr at 4° C. Incubations were terminated by rapid filtration through Unifilter-96 plates (Packard Instrument Company) and glass filters GF/C (Perkin Elmer) presoaked for 1 hr in polyethylenimine (0.3%) and washed 3 times with 1 ml of cold binding buffer. After addition of 45 μl of Microscint 40 (PerkinElmer) the Unifilter-96 plate was sealed and after 1 hr the ratioactivity counted using a TopCount Microplate Scintillation Counter (Packard Instrument Company).

Sequence of rat TAAR1 (Q923Y9 whole entry): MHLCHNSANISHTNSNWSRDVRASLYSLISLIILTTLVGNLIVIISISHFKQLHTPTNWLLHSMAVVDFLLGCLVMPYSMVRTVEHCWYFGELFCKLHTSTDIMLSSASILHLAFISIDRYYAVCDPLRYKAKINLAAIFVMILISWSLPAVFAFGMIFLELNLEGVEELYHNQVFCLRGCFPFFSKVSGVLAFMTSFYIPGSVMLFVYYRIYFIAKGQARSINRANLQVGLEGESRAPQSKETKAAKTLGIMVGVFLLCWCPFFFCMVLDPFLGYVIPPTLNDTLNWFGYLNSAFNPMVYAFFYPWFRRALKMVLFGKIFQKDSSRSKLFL
Sequence of mouse TAAR1 (Q923Y8 whole entry): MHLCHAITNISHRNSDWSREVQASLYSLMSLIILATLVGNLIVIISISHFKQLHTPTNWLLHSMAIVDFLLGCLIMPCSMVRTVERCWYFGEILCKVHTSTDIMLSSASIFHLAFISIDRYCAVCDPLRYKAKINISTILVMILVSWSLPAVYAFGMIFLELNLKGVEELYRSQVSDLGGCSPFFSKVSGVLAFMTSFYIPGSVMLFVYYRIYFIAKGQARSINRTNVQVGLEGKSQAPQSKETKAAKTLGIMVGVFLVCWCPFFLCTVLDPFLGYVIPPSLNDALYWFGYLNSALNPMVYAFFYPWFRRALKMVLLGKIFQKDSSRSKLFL

`Cn1nc(C(=O)Nc2ccc([C@H]3CNCCO3)cc2)cc1-c1ccccc1` [Example 18, (S)-1-methyl-N-(4-(morpholin-2-yl)phenyl)-5-phenyl-1H-pyrazole-3-carboxamide hydrochloride]: the Ki stood at 0.0017 µM on mouse TAAR1 and 0.0254 µM on rat TAAR1.

Regarding `Cn1nc(-c2ccccc2)cc1C(=O)Nc1ccc([C@@H]2CNCCO2)cc1` [Example 19, (R)-1-methyl-N-(4-(morpholin-2-yl)phenyl)-3-phenyl-1H-pyrazole-5-carboxamide hydrochloride], the values for the Ki on mouse TAAR1 and at rat TAAR1 were 0.0079 µM and 0.0028 µM, respectively.

Take `O=C(Nc1ccc([C@H]2CNCCO2)cc1)c1cc(-c2ccccc2Cl)n[nH]1` [Example 10, (S)-3-(2-chlorophenyl)-N-(4-(morpholin-2-yl)phenyl)-1H-pyrazole-5-carboxamide hydrochloride]: the Ki on mouse TAAR1 is 0.0005 µM; at rat TAAR1, 0.0026 µM.

For the compound `O=C(Nc1ccc([C@@H]2CNCCO2)cc1)c1ccn(-c2ccc(OC(F)F)cc2)n1` [Example 46, (R)-1-(4-(Difluoromethoxy)phenyl)-N-(4-(morpholin-2-yl)phenyl)-1H-pyrazole-3-carboxamide hydrochloride], the Ki came out at 0.004 µM on mouse TAAR1 and 0.0006 µM at rat TAAR1.

Regarding `COc1ccccc1-c1cc(C(=O)Nc2ccc([C@H]3CNCCO3)cc2)[nH]n1` [Example 9, (S)-3-(2-methoxyphenyl)-N-(4-(morpholin-2-yl)phenyl)-1H-pyrazole-5-carboxamide hydrochloride], the Ki is 0.0014 µM at mouse TAAR1 and 0.014 µM on rat TAAR1.

As to `N#Cc1cccc(-c2cc(C(=O)Nc3ccc([C@H]4CNCCO4)cc3)n[nH]2)c1` [Example 20, (S)-5-(3-cyanophenyl)-N-(4-(morpholin-2-yl)phenyl)-1H-pyrazole-3-carboxamide hydrochloride], the results for the inhibition constant Ki on mouse TAAR1 and on rat TAAR1 were 0.0022 µM and 0.0074 µM, respectively.

For `O=C(Nc1ccc([C@H]2CNCCO2)cc1)c1ccn(-c2ccc(OC(F)F)cc2)n1` [Example 45, (S)-1-(4-(Difluoromethoxy)phenyl)-N-(4-(morpholin-2-yl)phenyl)-1H-pyrazole-3-carboxamide hydrochloride], the values for the Ki on mouse TAAR1 and on rat TAAR1 were 0.0018 µM and 0.0014 µM, respectively.

Turning to `COc1ccc(-c2cc(C(=O)Nc3ccc([C@H]4CNCCO4)cc3)[nH]n2)cc1OC` [Example 11, (S)-3-(3,4-dimethoxyphenyl)-N-(4-(morpholin-2-yl)phenyl)-1H-pyrazole-5-carboxamide hydrochloride], the figures for the Ki on mouse TAAR1 and on rat TAAR1 were 0.0026 µM and 0.0127 µM, respectively.

As for `O=C(Nc1ccc([C@H]2CNCCO2)cc1)c1ccnn1-c1ccccc1` [Example 30, (S)—N-(4-(Morpholin-2-yl)phenyl)-1-phenyl-1H-pyrazole-5-carboxamide hydrochloride], the Ki was 0.143 µM at mouse TAAR1 and 1.32 µM on rat TAAR1.

In the case of `CCn1nc(-c2cccc(C#N)c2)cc1C(=O)Nc1ccc([C@H]2CNCCO2)cc1` [Example 25, (S)-3-(3-cyanophenyl)-1-ethyl-N-(4-(morpholin-2-yl)phenyl)-1H-pyrazole-5-carboxamide hydrochloride], the Ki on mouse TAAR1 was 0.0051 µM; at rat TAAR1, 0.0078 µM.

For `COc1cccc(-c2cc(C(=O)Nc3ccc([C@H]4CNCCO4)cc3)n[nH]2)c1` [Example 4, (S)-3-(3-methoxyphenyl)-N-(4-(morpholin-2-yl)phenyl)-1H-pyrazole-5-carboxamide hydrochloride], the inhibition constant Ki came out at 0.001 µM at mouse TAAR1 and 0.0022 µM at rat TAAR1.

On to `O=C(Nc1ccc([C@H]2CNCCO2)cc1)c1ccn(-c2nccnc2Cl)n1` [Example 49, (S)-1-(3-Chloropyrazin-2-yl)-N-(4-(morpholin-2-yl)phenyl)-1H-pyrazole-3-carboxamide hydrochloride], for which the inhibition constant Ki on mouse TAAR1 amounted to 0.0142 µM; at rat TAAR1, 0.139 µM.

Regarding `O=C(Nc1ccc([C@@H]2CNCCO2)cc1)c1cc(-c2cccc(Cl)c2)n[nH]1` [Example 15, (R)-3-(3-chlorophenyl)-N-(4-(morpholin-2-yl)phenyl)-1H-pyrazole-5-carboxamide hydrochloride], the Ki on mouse TAAR1 was found to be 0.0006 µM; on rat TAAR1, 0.0004 µM.

Consider `O=C(Nc1ccc([C@H]2CNCCO2)cc1)c1cc(-c2ccc(F)cc2)[nH]n1` [Example 3, (S)-3-(4-fluorophenyl)-N-(4-(morpholin-2-yl)phenyl)-1H-pyrazole-5-carboxamide hydrochloride], for which the Ki is 0.0008 µM at mouse TAAR1 and 0.0027 µM on rat TAAR1.

In the case of `O=C(Nc1ccc([C@H]2CNCCO2)cc1)c1ccn(-c2cc(C(F)(F)F)ncn2)n1` [Example 51, (S)—N-(4-(Morpholin-2-yl)phenyl)-1-(6-(trifluoromethyl)pyrimidin-4-yl)-1H-pyrazole-3-carboxamide hydrochloride], the results for the Ki on mouse TAAR1 and on rat TAAR1 were 0.0142 µM and 0.0071 µM, respectively.

With `CCn1nc(C(=O)Nc2ccc([C@H]3CNCCO3)cc2)cc1-c1cccc(OC(F)F)c1` [Example 41, (S)-5-(3-(Difluoromethoxy)phenyl)-1-ethyl-N-(4-(morpholin-2-yl)phenyl)-1H-pyrazole-3-carboxamide hydrochloride], the inhibition constant Ki on mouse TAAR1 was 0.0025 µM; at rat TAAR1 it was 0.0016 µM.

With `Cc1c(-c2ccccc2)n[nH]c1C(=O)Nc1ccc([C@H]2CNCCO2)cc1` [Example 6, (S)-4-methyl-N-(4-(morpholin-2-yl)phenyl)-3-phenyl-1H-pyrazole-5-carboxamide hydrochloride], the Ki on mouse TAAR1 was 0.0016 µM; on rat TAAR1, 0.008 µM.

Turning to `CCN(C[C@H]1COC(N)=N1)c1ccccc1` [^3[H]—(S)-4-[(ethyl-phenyl-amino)-methyl]-4,5-dihydro-oxazol-2-ylamine, reference compound], the Kd at mouse TAAR1 (mouse TAAR1 membranes, saturation curve, usual value, read-out: calculated Kd value of the TAAR1 radioligand) was around 0.7 nM; at rat TAAR1 (rat TAAR1 membranes, saturation curve, usual value, read-out: calculated Kd value of the TAAR1 radioligand), around 2.3 nM.

With `O=C(Nc1ccc([C@H]2CNCCO2)cc1)c1ccn(-c2ccc(F)cc2)n1` [Example 29, (S)-1-(4-Fluorophenyl)-N-(4-(morpholin-2-yl)phenyl)-1H-pyrazole-3-carboxamide hydrochloride], the Ki at mouse TAAR1 came out at 0.0011 µM; on rat TAAR1, 0.0024 µM.
